Test results published in patent publication US20130005802A1, “TREATMENT OF WNT/FRIZZLED-RELATED DISEASES” (priority 2009, published 2013).
Read-outs that look alike come from different tables or passages of the source.

Assays:
[1] = system: CRC119 tumor cells; assay: Flow-based cytotoxicity assay (annexin V), CRC119; format: cell-based; conditions: 3 days, 0.2-20 μM
Procedure: After 3 days incubation, all cells were harvested with 0.05% trypsin/EDTA and spun down by centrifugation. Cells were labeled with biotin-conjugated Annexin V, and then stained with 7-AAD and Streptavidin-APC. Samples were acquired by FACSCalibur machine (BD Bioscience) and analyzed with CellQuest software. Cells were analyzed for expression of Annexin V as a marker of apoptosis.
Annexin V may be used as a marker for apoptosis and other forms of cell death. […] After 3 days of incubation, all cells were harvested with 0.05% trypsin/EDTA, labeled with biotin-conjugated Annexin V, and then stained with 7-AAD and streptavidin-APC. Samples were acquired by FACSCalibur, and percentages of annexin V-positive cells were analyzed and plotted as shown in FIG. 11. Cells were analyzed for expression of Annexin V as a marker of apoptosis.

[2] = system: Dishevelled-2; assay: Immunoblot of endogenous cytosolic Dishevelled-2 in U2OS cells; format: cell-based; conditions: 1-7.5 μM, read-out: half maximal reduction of Dishevelled-2
Source text: After treatment, cytosolic fraction as well as cellular membrane were isolated as described (Mikels, A. J., et al. PLoS Biol 2006, 4, e115, incorporated herein by reference in its entirety). Immunoblots using β-catenin or Dishevelled-2 antibody were used to detect the respective protein levels in cytosol or on membrane, with β-actin immunoblots used for loading controls.
Dishevelled proteins (Dishevelled-1, 2, and 3 in mammalian cells) are intracellular molecules transducing Frizzled signaling.

[3] = molecular target: Frizzled1-GFP (Rattus norvegicus, UniProt Q08463); assay: Co-localization of internalized Frizzled1-GFP with β2-adrenergic receptor-RFP or Transferrin; format: cell-based
Procedure: To remove remaining surface bound Tf, the cells were exposed to unlabeled transferrin (10 mg/mL) for 2 min at room temperature. The cells were then fixed with 4% paraformaldehye, and imaged with a LSM510 confocal microscope (Zeiss).
Many classes of membrane receptors internalize in clathrin coated pits. In particular, β2-adrenergic receptors are prototypical for clathrin-dependent internalization of G protein-coupled receptors (Barak, L. S., et al. Mol Pharmacol 1997, 51, 177-184; Goodman, O. B., Jr., et al. Nature 1996, 383, 447-450, both are incorporated herein by reference in their entireties), and Transferrin is a well-documented standard for clathrin-mediated internalization in general (Mellman, I. Annu Rev Cell Dev Biol 1996, 12, 575-625, incorporated herein by reference). It was examined whether internalized Frizzled1-GFP co-localizes with either β2-adrenergic receptor-RFP or Transferrin in intracellular vesicles. FIG. 6A-6C show confocal images of unstimulated U2OS cells expressing both β2-adrenergic receptor-RFP (β2AR-RFP, FIG. 6A) and Frizzled1 receptors (Fzd1-GFP, FIG. 6B) prior to activation.
The merged image is presented in (FIG. 6L), wherein arrowheads indicate co-localized vesicles.

[4] = system: HCT116 cells; assay: MTT assay, HCT116; format: cell-based
Procedure: (§1) AsPC-1 tumor cells were cultured with T cells at a 1:5 ratio for 7 days in the presence of MEDI-565 or Cont BiTE (100 ng/mL). On day 7, floating cells were discarded and only adherent AsPC-1 cells were harvested with 0.05% trypsin/EDTA and washed with PBS three times. 1×10^4 AsPC-1 tumor cells were added to each well of 96 well flat bottom plates in 200 μL of complete RPMI1640 medium. The cells were allowed to adhere to the plates overnight at 37° C. (day 0) and were further incubated for 1, 2, 4 or 7 days. 20 μL of 10×MTT (3-[4,5-dimethylthiazol-2-yl]-2,5-diphenyl-tetrazolium bromide, 5 mg/mL) solution was added to each well, and incubated at 37° C. for 2 hr. The adherent cells were lysed with 150 μL of dimethyl sulfoxide (DMSO) and the optical density (OD) at 550 nm was measured.
(§2) Colorectal cancer cell lines were incubated in 96-well flat-bottomed plates at 5,000 cells per well in 200 μL of complete RPMI1640 medium. The cells were allowed to adhere to the plates overnight at 37° C. (day 0). […] Then 20 μL of 10×MTT solution was added to each well and incubated at 37° C. for 2 hr. The adherent cells were lysed with 150 μL of DMSO, and then optical density (OD) at 562 nm was measured. DMSO or culture medium was used as a control.
(§3) MTT assay was performed at each time point.

[5] = system: Dvl-2; assay: Immunohistochemistry of Dvl-2 in treated tumors; format: in vivo, NOD/SCID mice; conditions: 200 mg/kg, 2 or 3 weeks
Procedure: Paraffin-embedded specimens were cut into 4 μm-thick of sequential sections. After dewaxing in xylene and rehydrating stepwise in ethanol, sections were subjected to heat-induced antigen retrieval. Endogenous peroxidase activity was blocked with 3% H2O2, and non-specific binding was blocked with non-immune horse sera. Sections were then incubated with primary antibodies overnight at 4C. Anti-β-catenin (sc-65483, Santa Cruz Biotechnology, Inc., Santa Cruz, Calif.) and anti-Dvl-2 (sc-8026, Santa Cruz Biotechnology, Inc., Santa Cruz, Calif.) monoclonal antibodies were used at (1:50) dilution. After rinsing the sections were incubated with the biotinylated secondary antibody (1:200 dilution; Dakopatts, Copenhagen, Denmark) for 30 min at room temperature and then with the avidin-biotin peroxidase complex from the Vector Elite ABC kit (Vector Laboratories, Burlingame, Calif.) according to the manufacturer's instructions. Visualization was achieved using 3,3′-diaminobenzidine tetrahydrochloride and H2O2. Specimens were counterstained with hematoxylin.
NOD/SCID mice were implanted with colorectal cancer explants or cell lines. […] Tumors were excised and fixed with 10% neutralized, buffered formalin. Paraffin-embedded specimens were cut into 4 μm-thick of sequential sections. After dewaxing and rehydration, heat-induced antigen retrieval was performed. […]

[6] = system: CaCO2 cells; assay: MTT assay, CaCO2; format: cell-based; conditions: for IC50: Homo sapiens, Caco-2, 72 h
Procedure: as §1, §2, §3
An MTT assay was performed after 72 hr incubation. After cell lysis with DMSO, the optical density (OD) at 562 nm was measured.

Sequence of Frizzled1-GFP (Q08463 69-641): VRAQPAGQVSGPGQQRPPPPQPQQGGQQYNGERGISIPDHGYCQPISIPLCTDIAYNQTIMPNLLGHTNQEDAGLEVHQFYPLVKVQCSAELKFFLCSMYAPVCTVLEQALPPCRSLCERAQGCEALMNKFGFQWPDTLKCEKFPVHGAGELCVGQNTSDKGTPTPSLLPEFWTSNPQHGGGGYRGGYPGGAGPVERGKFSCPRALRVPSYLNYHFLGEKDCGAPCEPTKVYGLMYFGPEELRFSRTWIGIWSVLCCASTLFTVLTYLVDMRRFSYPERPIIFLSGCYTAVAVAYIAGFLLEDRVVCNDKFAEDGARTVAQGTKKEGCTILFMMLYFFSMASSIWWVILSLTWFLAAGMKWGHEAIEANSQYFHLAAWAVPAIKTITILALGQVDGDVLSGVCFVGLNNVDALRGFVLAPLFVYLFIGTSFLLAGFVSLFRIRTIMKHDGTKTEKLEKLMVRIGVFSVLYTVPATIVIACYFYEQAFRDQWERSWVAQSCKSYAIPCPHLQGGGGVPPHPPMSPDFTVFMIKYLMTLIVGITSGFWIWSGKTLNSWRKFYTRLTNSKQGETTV

SMILES: O=C(Nc1ccc([N+](=O)[O-])cc1Cl)c1cc(Cl)ccc1O [niclosamide]
- concentration with steep increase of annexin V-positive cells [1]: 1 µM
- IC50 [2]: ~1000 nM
- co-localization of Fzd1-GFP with β2AR-RFP ([3]; […] niclosamide and 0.1 μM isoproterenol, 2 hr or 6 hr): multiple overlapping intracellular distributions
- co-localization of internalized Transferrin with internalized Frizzled1 ([3]; […] niclosamide, Transferrin 100 μg/mL, 2 hr): significant co-localization
- cytotoxic effect compared with 10 μM oxaliplatin ([4]; 2 μM, 72 hr): stronger cytotoxic effect
- proliferation (MTT, OD 562 nm), sensitivity among three cell lines ([4]; 0.4, 2, 10 μM, 72 hr): most sensitive
- % proliferation over time ([4]; 0.4, 2, 10 μM, 24-96 hr): sensitive
- concentration at which cells were killed over time ([4]; 24-96 hr): 0.4 µM
- cytoplasmic expression of Dvl-2 in tumors vs control [5]: decreased levels
- cytotoxic effect compared with 10 μM oxaliplatin ([6]; 2 μM, 72 hr): stronger cytotoxic effect
- proliferation (MTT, OD 562 nm) ([6]; 0.4, 2, 10 μM, 72 hr): less proliferation
- % proliferation over time ([6]; 0.4, 2, 10 μM, 24-96 hr): sensitive
- IC50 ([6]; read-out: IC50 of niclosamide (MTT)): 1000 nM
- IC50 ([6]; read-out: IC50 of niclosamide (MTT) with oxaliplatin): 500 nM
